Patent publication US5521163A, “Antiviral pyrimidine nucleosides and methods for using same” (University of Birmingham, priority 1994, dated 1996)

Assays:
[1] = test system: VZV; assay: Plaque reduction assay, VZV clinical isolates in MRC-5 cells; type: cell-based, varicella zoster virus; conditions: read-out: IC50 VZV, Table 1, β-anomers
Procedure: Clinical isolates of varicella zoster virus (VZV) were assayed in monolayers of MRC-5 cells. MRC-5 cells are derived from human embyonic lung tissue. A plaque reduction assay was used in which a suspension of the virus stock was used to infect monolayers of the cells in multiwell trays. a range of concentrations of the compound under test of known molarity was added to the wells. Plaque numbers at each concnetration were expressed as percentages of the control and a dose response curve was constructed. From these curves the 50% inhibitory concentration of each drug was determined.

[2] = test system: HSV2; assay: Plaque reduction assay, HSV-2 (strain 186) in cell monolayers; type: cell-based, Herpes Simplex Virus type 2; conditions: Human alphaherpesvirus 2, Table 1; β-anomers; HSV-2 strain 186, plaque reduction
Procedure: (§1) Herpes Simplex Virus types 1 (HSV 1) and 2 (HSV2) were assayed in monolayers of Veto cells in multiwell trays. The virus strains used were SC16 and 186 for HSV-1 and HSV-2 respectively. Activity of compounds was determined in the plaque reduction assay, in which a cell monolayer was infected with a suspension of the appropirate HSV, and then overlaid with nutrient agarose in the form of a gel to ensure that there was no spread of virus throughout the culture. A range of concentrations of compound of known molarity was incorporated in the nutrient agarose overlay. Plaque numbers at each concentration were expressed as percentages of the control and a dose-response curve was drawn. From this curve the 50% inhibitory concentration (IC50) was estimated to be 0.66 μm for the compound of formula (I) in which X represents a 2-bromovinyl group.

[3] = test system: HSV1; assay: Plaque reduction assay, HSV-1 (strain SC16) in cell monolayers; type: cell-based, Herpes Simplex Virus type 1; conditions: Human alphaherpesvirus 1, SC16, Table 1; β-anomers; HSV-1 strain SC16, plaque reduction
Procedure: as §1

[4] = test system: Herpes Simplex Virus; assay: Plaque reduction assay, HSV (type not given); type: cell-based, Herpes Simplex Virus types 1 (HSV 1) and 2 (HSV2); conditions: read-out: 50% inhibitory concentration (IC50)
Procedure: as §1

Row | SMILES | IC50 [1] [nM] | IC50 [2] [nM] | IC50 [3] [nM] | IC50 [4] [nM]
1 | CCc1cn([C@H]2C[C@H](O)[C@@H](CO)S2)c(=O)[nH]c1=O [X=CH2 CH3, Y=OH, 2'-Deoxy-5-ethyl-4'-thiouridine] | 990 |  |  | 
2 | Nc1nc(=O)n([C@H]2C[C@H](O)[C@@H](CO)S2)cc1/C=C/Br [X=CH=CHBr, Y=NH2, 2'-Deoxy-5-E-(2-bromovinyl)-4'-thiocytidine] |  | > 10000 |  | 
3 | O=c1[nH]c(=O)n([C@H]2C[C@H](O)[C@@H](CO)S2)cc1/C=C/Br [X=CH=CHBr, Y=OH, E-5-(2-bromovinyl)-2'-deoxy-4'-thiouridine] |  | 10000 to 100000 | 600 | 660
